Source: PubChem BioAssay AID330 (DTP/NCI, 2004)
Values joined by “and” are separate entries in the source; they are usually repeats but may differ in a detail not shown here. Equal values may be shown once. Inconclusive results and toxic doses are left out.

Test system: P388 leukemia ip, CD2F1 mice, survival T/C
Assay: NCI In Vivo Anticancer Drug Screen. Data for tumor model P388 Leukemia (intraperitoneal) in CD2F1 (CDF1) mice
Settings: endpoint: median survival time, higher = longer survival
Outline: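 Mice carrying the transplanted tumor received test compound or vehicle. Survival was recorded in each group, and the value is the treated-group measurement divided by that of the vehicle-treated control group.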

[1] = dose: 60.0 mg/kg/injection, schedule: Q01DX005 (ip), vehicle: saline with Tween-80
[2] = dose: 120.0 mg/kg/injection, schedule: Q01DX005 (ip), vehicle: saline with Tween-80
[3] = dose: 50.0 mg/kg/injection, schedule: Q01DX009 (ip), vehicle: saline with Tween-80
[4] = dose: 100.0 mg/kg/injection, schedule: Q01DX009 (ip), vehicle: saline with Tween-80
[5] = dose: 200.0 mg/kg/injection, schedule: Q01DX009 (ip), vehicle: saline with Tween-80
[6] = dose: 50.0 mg/kg/injection, schedule: Q01DX005 (ip), vehicle: saline with Tween-80
[7] = dose: 100.0 mg/kg/injection, schedule: Q01DX005 (ip), vehicle: saline with Tween-80
[8] = dose: 200.0 mg/kg/injection, schedule: Q01DX005 (ip), vehicle: saline with Tween-80
[9] = dose: 12.5 mg/kg/injection, schedule: Q01DX009 (ip), vehicle: saline with Tween-80
[10] = dose: 25.0 mg/kg/injection, schedule: Q01DX009 (ip), vehicle: saline with Tween-80
[11] = dose: 50.0 mg/kg/injection, schedule: Q01DX005 (ip), vehicle: Klucel (hydroxypropylcellulose) (HPC)
[12] = dose: 100.0 mg/kg/injection, schedule: Q01DX005 (ip), vehicle: Klucel (hydroxypropylcellulose) (HPC)
[13] = dose: 200.0 mg/kg/injection, schedule: Q01DX005 (ip), vehicle: Klucel (hydroxypropylcellulose) (HPC)
[14] = dose: 240.0 mg/kg/injection, schedule: Q01DX005 (ip), vehicle: saline with Tween-80
[15] = dose: 6.25 mg/kg/injection, schedule: Q01DX009 (ip), vehicle: saline
[16] = dose: 12.5 mg/kg/injection, schedule: Q01DX009 (ip), vehicle: saline
[17] = dose: 60.0 mg/kg/injection, schedule: Q01DX005 (ip), vehicle: Klucel (hydroxypropylcellulose) (HPC)
[18] = dose: 120.0 mg/kg/injection, schedule: Q01DX005 (ip), vehicle: Klucel (hydroxypropylcellulose) (HPC)
[19] = dose: 240.0 mg/kg/injection, schedule: Q01DX005 (ip), vehicle: Klucel (hydroxypropylcellulose) (HPC)

For `O=C(Nc1ccc(C2=NCCN2)cc1)c1cc2ccc(C3=NCCN3)cc2o1`, the T/C (dose: 100.0 mg/kg/injection, schedule: Q04DX003 (ip), vehicle: suspension in saline) was 104 % of control and the T/C (dose: 200.0 mg/kg/injection, schedule: Q04DX003 (ip), vehicle: suspension in saline) was 119 % of control.
In the case of `CCOC(=O)C1C(O)CC2c3ccccc3-c3ccccc3C21` (stereo not given), the T/C [1] is reported as 87 % of control and the T/C [2] is reported as 87 % of control.
In the case of `CCCC(C)c1ccc(OCc2ccc(C)cc2)cc1` (stereo not given), the T/C [3] is reported as 114 % of control, the T/C [4] is reported as 91 % of control and the T/C [5] is reported as 95 % of control.
For `NC(CCCCNC(=O)c1ccccc1)C(=O)O` (stereo not given), the T/C [6] was 101 % of control, the T/C [7] was 93 % of control and the T/C [8] was 99 % of control.
`COc1cc(-c2c(C#N)c(OC)[nH]c(=O)c2C#N)cc(OC)c1OC` was tested, and the T/C [9] was 105 % of control, the T/C [10] was 102 % of control and the T/C [3] was 102 % of control and 105 % of control. The T/C [4] was 96 % of control and the T/C [5] was 95 % of control.
For `CCC(c1ccc(OCc2ccccc2)cc1)c1cc2c(cc1OC)OCO2` (stereo not given), the T/C (dose: 25.0 mg/kg/injection, schedule: Q01DX005 (ip), vehicle: distilled water + Tween-80) was 98 % of control, the T/C (dose: 50.0 mg/kg/injection, schedule: Q01DX005 (ip), vehicle: distilled water + Tween-80) was 92 % of control and the T/C (dose: 100.0 mg/kg/injection, schedule: Q01DX005 (ip), vehicle: distilled water + Tween-80) was 86 % of control. For the same compound, the T/C (dose: 200.0 mg/kg/injection, schedule: Q01DX005 (ip), vehicle: distilled water + Tween-80) was 88 % of control.
For `OC(COc1cccc2ccccc12)CN(CCCl)CCCl` (stereo not given), the T/C (dose: 1.25 mg/kg/injection, schedule: Q01DX009 (ip), vehicle: saline) was 122 % of control and the T/C (dose: 20.0 mg/kg/injection, schedule: Q01DX009 (ip), vehicle: saline) was 91 % of control.
For `CCCN(CCC)CN1C(=O)c2ccccc2C1=O`, the T/C (dose: 25.0 mg/kg/injection, schedule: Q01DX005 (ip), vehicle: Klucel (hydroxypropylcellulose) (HPC)) was 106 % of control and 92 % of control, the T/C [11] was 100 % of control and 105 % of control and 106 % of control and the T/C [12] was 109 % of control and 89 % of control and 95 % of control. The T/C [13] was 99 % of control and 108 % of control.
With `COc1cc2c(cc1OC)CN1CCCC1C2` (stereo not given) the T/C (dose: 6.25 mg/kg/injection, schedule: Q01DX005 (ip), vehicle: saline with Tween-80) was 97 % of control, the T/C (dose: 12.5 mg/kg/injection, schedule: Q01DX005 (ip), vehicle: saline with Tween-80) was 108 % of control and the T/C (dose: 25.0 mg/kg/injection, schedule: Q01DX005 (ip), vehicle: saline with Tween-80) was 101 % of control.
With `O=c1[nH]c2ccccc2nc1C1(F)CCCC1` the T/C [1] was 98 % of control, the T/C [2] was 92 % of control and the T/C [14] was 89 % of control.
In the case of `NS(=O)(=O)c1ccc(Nc2c3ccc(Cl)cc3nc3ncccc23)cc1`, the T/C [6] is reported as 108 % of control, the T/C [7] is reported as 101 % of control and the T/C [8] is reported as 94 % of control.
`CC(C)(C)c1ccc(C(C)(C)C)c(N2C(=O)c3ccc4c5ccc6c7c(ccc(c8ccc(c3c48)C2=O)c75)C(=O)N(c2cc(C(C)(C)C)ccc2C(C)(C)C)C6=O)c1` was tested, and the T/C [1] was 95 % of control, the T/C [2] was 90 % of control and the T/C [14] was 99 % of control.
With `CC(C)(C)c1cc(O)cc(C(=O)O)c1O` the T/C [3] was 101 % of control and the T/C [4] was 100 % of control.
In the case of `COc1ccc2[nH]c(C)cc2c1CN`, the T/C (dose: 3.12 mg/kg/injection, schedule: Q01DX009 (ip), vehicle: saline) is reported as 113 % of control, the T/C [15] is reported as 101 % of control and the T/C [16] is reported as 112 % of control.
In the case of `CCNC(=O)/N=c1/sc([N+](=O)[O-])cn1CC(=O)N(C)C(=O)OCC`, the T/C (dose: 25.0 mg/kg/injection, schedule: Q01DX001 (ip), vehicle: saline) is reported as 100 % of control, the T/C (dose: 50.0 mg/kg/injection, schedule: Q01DX001 (ip), vehicle: saline) is reported as 98 % of control and the T/C (dose: 100.0 mg/kg/injection, schedule: Q01DX001 (ip), vehicle: saline) is reported as 100 % of control.
`COC(=O)C1=C/N(C)CCC/C(C(N)=O)=C\1` was tested, and the T/C [11] was 89 % of control, the T/C [12] was 102 % of control and the T/C [13] was 94 % of control.
With `COC1(OC)OC(c2ccccc2)=C(C#N)C(c2ccccc2)C1(OC)OC` (stereo not given) the T/C [17] was 102 % of control, the T/C [18] was 100 % of control and the T/C [19] was 96 % of control.
For `Clc1cccc(-c2nc(N3CCOCC3)c3c4c(sc3n2)CCC4)c1`, the T/C [17] was 101 % of control, the T/C [18] was 97 % of control and the T/C [19] was 97 % of control.
In the case of `Cc1ccc(NS(=O)(=O)c2ccc3ccccc3c2)c(C)c1`, the T/C (dose: 100.0 mg/kg/injection, schedule: Q04DX003 (ip), vehicle: saline with Tween-80) is reported as 100 % of control, the T/C (dose: 200.0 mg/kg/injection, schedule: Q04DX003 (ip), vehicle: saline with Tween-80) is reported as 100 % of control and the T/C (dose: 400.0 mg/kg/injection, schedule: Q04DX003 (ip), vehicle: saline with Tween-80) is reported as 104 % of control.
For `Cc1ccc(C(=O)NC2c3ccccc3Oc3ccccc32)cc1`, the T/C [6] was 90 % of control and the T/C [7] was 86 % of control.
In the case of `C=C(C)[C@]12CC(C)C34OC(/C=C\C=C\CCCCCCCCC)(O[C@@H]1[C@@H]3[C@@H]1O[C@]1(CO)[C@@H](O)[C@]1(O)C(=O)C(C)=C[C@@H]41)O2` (stereo not given in full), the T/C (dose: 0.75 mg/kg/injection, schedule: Q01DX009 (ip), vehicle: alcohol) is reported as 160 % of control and the T/C (dose: 1.5 mg/kg/injection, schedule: Q01DX009 (ip), vehicle: alcohol) is reported as 160 % of control and 163 % of control.
`COC(C)(C)c1ccc(C)c(O)c1` was tested, and the T/C (dose: 4.38 mg/kg/injection, schedule: Q01DX005 (ip), vehicle: Klucel (hydroxypropylcellulose) (HPC)) was 96 % of control, the T/C (dose: 8.75 mg/kg/injection, schedule: Q01DX005 (ip), vehicle: Klucel (hydroxypropylcellulose) (HPC)) was 95 % of control and the T/C (dose: 17.5 mg/kg/injection, schedule: Q01DX005 (ip), vehicle: Klucel (hydroxypropylcellulose) (HPC)) was 92 % of control. For the same compound, the T/C (dose: 35.0 mg/kg/injection, schedule: Q01DX005 (ip), vehicle: Klucel (hydroxypropylcellulose) (HPC)) was 91 % of control.
For `Cn1c(=O)c2c(nc(/N=C/c3ccncc3)n2C)n(C)c1=O`, the T/C (dose: 100.0 mg/kg/injection, schedule: Q04DX003 (ip), vehicle: saline) was 101 % of control, the T/C (dose: 200.0 mg/kg/injection, schedule: Q04DX003 (ip), vehicle: saline) was 101 % of control and the T/C (dose: 400.0 mg/kg/injection, schedule: Q04DX003 (ip), vehicle: saline) was 101 % of control.
With `C=C[Si](C)(C)c1ccc([Si](C)(C)C=C)cc1` the T/C [15] was 107 % of control, the T/C [16] was 105 % of control and the T/C (dose: 25.0 mg/kg/injection, schedule: Q01DX009 (ip), vehicle: saline) was 117 % of control. The T/C (dose: 100.0 mg/kg/injection, schedule: Q01DX009 (ip), vehicle: saline) was 97 % of control and the T/C (dose: 200.0 mg/kg/injection, schedule: Q01DX009 (ip), vehicle: saline) was 99 % of control.
In the case of `C=C1CCCC2(C)C(OC(C)=O)C=C3C(C)(CCC3(O)C(C)C)CC12O` (stereo not given), the T/C (dose: 0.5 mg/kg/injection, schedule: Q01DX009 (ip), vehicle: saline + alcohol) is reported as 110 % of control, the T/C (dose: 1.0 mg/kg/injection, schedule: Q01DX009 (ip), vehicle: saline + alcohol) is reported as 108 % of control and the T/C (dose: 2.0 mg/kg/injection, schedule: Q01DX009 (ip), vehicle: saline + alcohol) is reported as 102 % of control.
`CCCCCCCCCCCCCCCCCC(=O)OCCN(C=O)C[n+]1ccccc1` was tested, and the T/C (dose: 100.0 mg/kg/injection, schedule: Q04DX002 (ip), vehicle: saline) was 93 % of control and the T/C (dose: 200.0 mg/kg/injection, schedule: Q04DX002 (ip), vehicle: saline) was 120 % of control.
In the case of `Nc1ncnn1Cc1ccccc1`, the T/C [10] is reported as 104 % of control, the T/C [3] is reported as 100 % of control and the T/C [4] is reported as 101 % of control. The T/C [5] was 102 % of control.
`[Cl][Zr][Cl].[c-]1[c-][c-][c-](Cc2ccccc2)[c-]1.[c-]1[c-][c-][c-](Cc2ccccc2)[c-]1` was tested, and the T/C (dose: 3.12 mg/kg/injection, schedule: Q01DX009 (ip), vehicle: saline with Tween-80) was 104 % of control, the T/C (dose: 6.25 mg/kg/injection, schedule: Q01DX009 (ip), vehicle: saline with Tween-80) was 89 % of control and the T/C [9] was 86 % of control.
